Laboratory results as given in the supplement of paper PMC10307832.

Assays:
Experiment in all cases: relative viability (nuclei count vs DMSO), 5 days (fraction); higher = more cells survive
MK-8033 + Navitoclax = compound: Cn1cc(-c2cnc3ccc4ccc(CS(=O)(=O)NCc5ccccn5)cc4c(=O)c3c2)cn1 [MK-8033] + CC1(C)CCC(c2ccc(Cl)cc2)=C(CN2CCN(c3ccc(C(=O)NS(=O)(=O)c4ccc(N[C@H](CCN5CCOCC5)CSc5ccccc5)c(S(=O)(=O)C(F)(F)F)c4)cc3)CC2)C1 [Navitoclax] (partner 0.5 µM)
How it was run: (§1)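 Cells from lung cancer lines were seeded into 1536-well plates and, one day later, dosed by pin tool. Treatments were either a single drug or a fixed dose of an anchor drug with five library-drug doses (not always all listed) in √10 steps. After 5 days, nuclei were stained in a one-step fixation (final 0.05% Triton X-100, 1% formaldehyde, 1 ug/ml Hoechst) and counted on 4× images, and relative viability is the treated-to-vehicle nuclei ratio, as the median of duplicate plates.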

RU-SKI 43 + Palbociclib = compound: CC[C@@H](C)CNCC(=O)N1CCC2=C([C@@H]1COC3=CC=CC(=C3)C)C=CS2 [RU-SKI 43] + CC(=O)c1c(C)c2cnc(Nc3ccc(N4CCNCC4)cn3)nc2n(C2CCCC2)c1=O [Palbociclib] (partner 0.5 µM)
How it was run: as §1

MK-8033 + Linsitinib = compound: Cn1cc(-c2cnc3ccc4ccc(CS(=O)(=O)NCc5ccccn5)cc4c(=O)c3c2)cn1 [MK-8033] + C[C@]1(O)C[C@@H](c2nc(-c3ccc4ccc(-c5ccccc5)nc4c3)c3c(N)nccn32)C1 [Linsitinib] (partner 1 µM)
How it was run: as §1

RU-SKI 43 + Pictilisib = compound: CC[C@@H](C)CNCC(=O)N1CCC2=C([C@@H]1COC3=CC=CC(=C3)C)C=CS2 [RU-SKI 43] + CS(=O)(=O)N1CCN(Cc2cc3nc(-c4cccc5[nH]ncc45)nc(N4CCOCC4)c3s2)CC1 [Pictilisib] (partner 1 µM)
How it was run: as §1

Cell Line	relative viability (MK-8033 + Navitoclax; first compound 0.02 µM)	relative viability (MK-8033 + Navitoclax; first compound 0.06325 µM)	relative viability (MK-8033 + Navitoclax; first compound 0.2 µM)	relative viability (MK-8033 + Navitoclax; first compound 2 µM)	relative viability (RU-SKI 43 + Palbociclib; first compound 0.1 µM)	relative viability (RU-SKI 43 + Palbociclib; first compound 0.3162 µM)	relative viability (RU-SKI 43 + Palbociclib; first compound 1 µM)	relative viability (RU-SKI 43 + Palbociclib; first compound 3.162 µM)	relative viability (RU-SKI 43 + Palbociclib; first compound 10 µM)	relative viability (MK-8033 + Linsitinib; first compound 0.02 µM)	relative viability (MK-8033 + Linsitinib; first compound 0.06325 µM)	relative viability (MK-8033 + Linsitinib; first compound 0.2 µM)	relative viability (MK-8033 + Linsitinib; first compound 2 µM)	relative viability (RU-SKI 43 + Pictilisib; first compound 0.1 µM)	relative viability (RU-SKI 43 + Pictilisib; first compound 0.3162 µM)	relative viability (RU-SKI 43 + Pictilisib; first compound 1 µM)	relative viability (RU-SKI 43 + Pictilisib; first compound 3.162 µM)	relative viability (RU-SKI 43 + Pictilisib; first compound 10 µM)	relative viability (MK-8033 + Navitoclax; first compound 0.6325 µM)	relative viability (MK-8033 + Linsitinib; first compound 0.6325 µM)
HCC-78	0.596	0.665	0.767	0.774	0.43	0.408	0.533	0.461	0.503	0.474	0.501	0.474	0.581	0.24	0.232	0.278	0.176	0.191		
NCI-H520	1.14	1.03	1.02	0.975	0.247	0.241	0.259	0.237	0.148	0.994	0.876	0.844	0.991	0.279	0.326	0.385	0.456	0.306	1.06	0.925
BEN	0.067	0.0568	0.0526	0.0791	0.489	0.468	0.523	0.46	0.451	0.906	0.859	0.765	0.853	0.642	0.546	0.791	0.528	0.584	0.0753	0.844
A-427	0.967	0.869	0.891	0.868	0.536	0.532	0.523	0.564	0.503	1.09	1.21	1.02	1.1	0.83	0.66	0.878		0.675	0.912	1.17
EMC-BAC-2	1.16	1.06	1.12	1.15	0.523	0.477	0.552	0.505	0.518	0.774	0.771	0.744	0.791	0.516	0.518	0.561	0.565	0.511	1.14	0.893
NCI-H1975	1.12	0.92	1.08	1.07	0.642	0.626	0.669	0.541	0.352	0.925	0.957	0.873	0.905	0.293	0.289	0.294	0.273	0.254	1.08	0.956
NCI-H1755	0.829	0.988	0.983	0.966	0.478	0.458	0.44	0.478	0.466	0.996	0.993	0.954	0.946	0.384	0.524	0.532	0.48	0.367	1.01	0.988
NCI-H2023	1.08	0.881	0.933	0.847	0.383	0.385	0.444	0.451	0.311	0.651	0.533	0.473	0.415	0.269	0.213	0.236	0.264	0.212	0.943	0.536
EKVX	0.939	0.923	0.916	0.96	0.332	0.319	0.336	0.379	0.353	1	1.01	0.856	0.994	0.395	0.422	0.392	0.482	0.386	0.82	1.05
EPLC-272H	1.12		1.07	1.08	0.315	0.254	0.323	0.286	0.307	1.17		1.01	1.17	0.316	0.315	0.404		0.291	0.853	1.07
LCLC-97TM1	0.402	0.506	0.396	0.401	0.296	0.189	0.281	0.222	0.231	0.173	0.149	0.202	0.207	0.191		0.213	0.162	0.188	0.398	0.181
NCI-H2085	1.03	1.03	1.1	1.14	0.514	0.444	0.467	0.48	0.461	0.831	0.797	0.837	0.825	0.476	0.353	0.473	0.409	0.469	1.13	0.943
COR-L23	0.938	0.88	0.948	0.885	0.288	0.241	0.311	0.357	0.277	0.88	0.849	0.824	0.902	0.754	0.756	0.897	0.986	0.738	1.01	0.993
HCC-15	0.744	0.706	0.679	0.668	0.706	0.883	0.76	0.753	0.665	0.763	0.851	0.83	0.801	0.886	0.887	0.872	0.721	0.679	0.668	0.911
RERF-LC-KJ	0.972	0.867	0.756	0.882	1.1	1.4	1.15	1	0.851	0.885	0.902	0.836	0.938	0.535	0.529	0.61	0.548	0.476	0.844	0.908
PC-3 [JPC-3]	0.746		0.775	0.749	0.534	0.479	0.561	0.558	0.343	0.947		0.863	0.987	0.768	0.69	0.805	0.816	0.683	0.726	0.961

Cell Line	relative viability (MK-8033 + Navitoclax; first compound 0.02 µM)	relative viability (MK-8033 + Navitoclax; first compound 0.06325 µM)	relative viability (MK-8033 + Navitoclax; first compound 0.2 µM)	relative viability (MK-8033 + Navitoclax; first compound 2 µM)	relative viability (RU-SKI 43 + Palbociclib; first compound 0.1 µM)	relative viability (RU-SKI 43 + Palbociclib; first compound 0.3162 µM)	relative viability (RU-SKI 43 + Palbociclib; first compound 1 µM)	relative viability (RU-SKI 43 + Palbociclib; first compound 3.162 µM)	relative viability (RU-SKI 43 + Palbociclib; first compound 10 µM)	relative viability (MK-8033 + Linsitinib; first compound 0.02 µM)	relative viability (MK-8033 + Linsitinib; first compound 0.06325 µM)	relative viability (MK-8033 + Linsitinib; first compound 0.2 µM)	relative viability (MK-8033 + Linsitinib; first compound 2 µM)	relative viability (RU-SKI 43 + Pictilisib; first compound 0.1 µM)	relative viability (RU-SKI 43 + Pictilisib; first compound 0.3162 µM)	relative viability (RU-SKI 43 + Pictilisib; first compound 1 µM)	relative viability (RU-SKI 43 + Pictilisib; first compound 3.162 µM)	relative viability (RU-SKI 43 + Pictilisib; first compound 10 µM)	relative viability (MK-8033 + Navitoclax; first compound 0.6325 µM)	relative viability (MK-8033 + Linsitinib; first compound 0.6325 µM)
NCI-H1355	0.911	0.897	0.894	0.928	0.405	0.381	0.358	0.42	0.389	0.735	0.7	0.762	0.828	0.432	0.331	0.508	0.465	0.442	0.981	0.795
NCI-H460	0.975	0.921	1.01	1.04	0.222	0.165	0.183	0.199	0.128	0.903	0.702	0.686	0.684	0.335	0.35	0.45	0.263	0.238	1.19	0.85
NCI-H2228	1.37	0.876	0.754	0.839	0.735	1.05	0.892	0.535	0.737	0.577	0.629	0.537	0.625	0.306	0.375	0.42	0.51	0.285	0.54	0.761
SK-LU-1	0.808	0.798	0.792	0.807	0.386	0.386	0.403	0.416	0.354	1.14	1.14	0.951	0.878	0.556	0.578	0.634	0.678	0.554	0.919	1.05
201T	1.26	1.19	1.21	1.2	0.367	0.329	0.368	0.361	0.361	1.13	0.916	0.979	1.02	0.71	0.544	0.737	0.662	0.67	1.16	1
NCI-H441	0.566	0.448	0.569	0.415	0.192	0.278	0.205	0.229	0.146	0.505	0.401	0.54	0.53	0.466	0.491	0.47	0.609	0.468	0.573	0.551
SW 1573	0.721		0.991	0.95	0.37	0.453	0.397	0.375	0.283	0.799	0.721	0.764	0.684	0.519	0.544	0.581	0.648	0.455	0.884	0.749
HOP-62	1.03	0.89	1.03	0.955	0.462	0.508	0.532	0.469	0.403	0.62	0.99	0.898	1.01	0.767	0.69	0.834	0.769	0.611	1.12	0.895
NCI-H1651	1.06	1.03	1.07	1.02	0.522	0.533	0.532	0.537	0.542	1.07	0.835	0.824	0.856	0.606	0.783	0.76	0.621	0.728	1.13	1.03
CAL-12T	1.19	1.2	1.15	1.28	0.413	0.474	0.365	0.457	0.391	0.738	0.861	0.72	0.771	0.772	0.334	0.624	0.397	0.461	0.92	0.903
NCI-H2126	0.836	0.838	0.861	0.827	0.355	0.37	0.38	0.355	0.353	0.727	0.659	0.673	0.715	0.491	0.407	0.549	0.492	0.507	0.832	0.686
COR-L 105	0.689	0.777	0.779	0.906	0.39	0.367	0.433	0.395	0.363	0.868	1.04	0.838	0.915	0.436	0.361	0.377	0.379	0.364	0.694	0.902
LK-2	0.907	0.853	0.807	0.772	0.685	0.912	0.949	0.673	0.674	0.642	0.509	0.527	0.508	0.596	0.809	0.686		0.532	0.924	0.317
NCI-H2347	0.844	0.741	0.779	0.737	0.434	0.329	0.441	0.403	0.394	0.884	0.855	0.958	0.895	0.589	1.18	0.595	0.72	0.574	0.827	0.977
PC-14	0.96	0.944	0.987	1.02	0.575	0.668	0.798	0.451	0.401	0.978	0.843	0.859	0.858	0.644	0.716	0.756	0.646	0.462	1.06	0.939
NCI-H1793	0.454		0.291	0.508	0.331	0.222	0.326	0.336	0.27	0.915		0.775	0.782	0.396	0.411	0.479	0.318	0.31	0.38	0.858
